Results on five compounds are retold here after patent EP4631501A1, “COMBINATIONS OF A CALCIUM HOMEOSTASIS DISRUPTOR WITH A DEATH RECEPTOR 5 AGONIST FOR TREATING CANCER” (Stichting Het Nederlands Kanker Instituut- Antoni van …, priority 2024, dated 2025).

The subject of one assay is A549 cells. In words: Colony formation assay in SLC25A23 shRNA knock-down A549 cells treated with senescence inducers. The assay is classed as cell-based. The following applies: three independent shRNAs targeting SLC25A23.
A further assay relates to DR5. In words: Western blot of DR5 induction in A549 cells treated with salinomycin and NAC. The assay is classed as cell-based. The following applies: salinomycin plus NAC. An excerpt:
(Fig. 3A). This notion was also supported by the western blot analysis. We observed that an upregulation of death receptor 5 (DR5), cleavage of caspase 3 and 8 (cl-CASP8 and 3), indicates extrinsic apoptosis activation. […] In Figure 3B, we noticed the upregulation of cJUn and DR5 by salinomycin treatment. This has been denoted by the past studies showing salinomycin could modulate autophagy to induce ROS (Verdoodt 2012). The elevated ROS led to cJun upregulation and NF-kB activation to increase the DR5 expression (Fu 2010). To validated molecular mechanism in our senescent models, we knocked-down cJun, NF-kB2 and Nrf2 using shRNA. […]
• Figure 1: CRISPR-based senolytic screen identifies SLC25A23 as a senolytic target • (A). […] Changes in library representation after 10 days doxycycline treatment were determined by Illumina deep-sequencing. • (B). gRNAs prioritized for further analysis were selected by the fold depletion of abundance in S2 and S1 samples compared with that in P2 and P2 samples, using methods as described previously (Evers et al., Nat Biotech, 2016). […] Cell viability was assessed by colony formation assay in the A549 cells stably infected with doxycycline-inducible Cas9 (iCas9) lentiviral vectors and a guide RNAs target SLC25A23 lentiviral vector. […] Cell viability was assessed by colony formation assay in the A549 and MDA-MB-231 cells. […]

The test system of a further assay is A549 lung cancer cells. The assay is classed as in vivo, BALB/c nude mice. An excerpt: (§1) In order to obtain a synergistic effect, we combed low doses of DR5 agonist antibody either IgG-conatumumab or IgA-conatumumab with salinomycin, as senolytic cocktails. […] To test this senolytic cocktail in vivo, we used both immunodeficient and immunocompetent mouse models. We engrafted A549 cells into immunodeficient nude mice and Hepa1-6 liver cancer cells in syngeneic immunocompetent C57BL/6 mice. After tumors were established, we treated with alisertib to induce senescence and combinations of the two senolytic drugs.
(§2) Schematic of iCas9-associated senolytic CRISPR screen workflow. A549 cells were infected with a doxycycline-inducible Cas9 (iCas9) lentiviral vector. Next, Brunello lentiviral whole genome-wide gRNA collection virus was introduced to the A549-iCas9 cells. […] Changes in library representation after 10 days doxycycline treatment were determined by Illumina deep-sequencing. • (B). gRNAs prioritized for further analysis were selected by the fold depletion of abundance in S2 and S1 samples compared with that in P2 and P2 samples, using methods as described previously (Evers et al., Nat Biotech, 2016). […] Cell viability was assessed by colony formation assay in the A549 cells stably infected with doxycycline-inducible Cas9 (iCas9) lentiviral vectors and a guide RNAs target SLC25A23 lentiviral vector.

In assay [1] the test system is Hepa1-6 liver cancer cells. The assay is classed as in vivo, C57BL/6 mice.
Source text: as §1, §2

The test system of a further assay is senescent cells. The experiment in a line: Cell morphology imaging of senescent cells treated with salinomycin.
Assay [2] deals with alisertib-induced senescent and proliferating A549. In words: Western blot of cell death biomarkers in alisertib-induced senescent and proliferating A549. Background: In western blotting, separated proteins are transferred to a membrane and probed.
Assay [3] deals with lung (A549), breast (MDA-MB-231, MCF-7, T47D) and liver (SK-Hep1) cancer models. The experiment in a line: Colony formation assay, senescent versus proliferating cancer cells treated with salinomycin.

Where two headings read alike, the source gives them in different places.

Take `COc1ccc2c(c1)C1(CC1c1ccc3c(C=Cc4ccc(CN5CC(C)OC(C)C5)cc4)n[nH]c3c1)C(=O)N2` (stereo not shown) [CFI-400945]: in the assay with A549 cells, the “sensitivity of SLC25A23 suppressed cells to senescence inducers” value (from here on “sensitivity of SLC25A23 suppressed cells”) is on record as “highly sensitive”.

Regarding `CC(=O)N[C@@H](CS)C(=O)O` [N-Acetyl Cysteine (NAC), N-Acetyl Cysteine], the “DR5 upregulation in salinomycin treated cells” value with DR5 is “could reserve the DR5 upregulation”.

For `COc1cc(Nc2ncc3c(n2)-c2ccc(Cl)cc2C(c2c(F)cccc2OC)=NC3)ccc1C(=O)O` [alisertib], in the assay on A549 cells, the “sensitivity of SLC25A23 suppressed cells” value was “highly sensitive”. Besides, the tumor growth entry was “limited tumor growth inhibition” with A549 lung cancer cells (A549 in nude mice, 25 mg kg-1 alisertib, 1.5 mg kg-1 salinomycin, 5 µg per dose conatumumab (2.5 µg in three-way combination)) and “limited tumor growth inhibition” in assay [1] (Hepa1-6 in C57BL/6 mice, 25 mg kg-1 alisertib, 1.5 mg kg-1 salinomycin, 0.3 µg per dose MD5-1).

In the case of `COc1cc([C@@H]2c3cc4c(cc3[C@@H](O[C@@H]3O[C@@H]5CO[C@@H](C)O[C@H]5[C@H](O)[C@H]3O)[C@H]3COC(=O)[C@H]23)OCO4)cc(OC)c1O` [etoposide], the “sensitivity of SLC25A23 suppressed cells” value in the assay on A549 cells was “highly sensitive”.

In the case of `CC[C@@H](C(=O)[C@@H](C)[C@@H](O)[C@H](C)[C@@H]1O[C@@H]([C@@H](CC)C(=O)O)CC[C@@H]1C)[C@H]1O[C@]2(C=C[C@@H](O)[C@]3(CC[C@@](C)([C@H]4CC[C@](O)(CC)[C@H](C)O4)O3)O2)[C@H](C)C[C@@H]1C` [salinomycin], the tumor growth result in the assay on A549 lung cancer cells (mouse, in vivo) is “limited tumor growth inhibition”. Also, in assay [1] (mouse, in vivo), the tumor growth result was “limited tumor growth inhibition”. Moreover, the “cell death phenotype under the microscope” value in the assay with senescent cells is “PANoptosis phenotype”. In assay [2], the “Microtubule-associated protein 1A/1B-light chain 3 (LC3)” value is “upregulation”; the cJUn result is reported as “upregulation”; the “caspase 3 and 8 (cl-CASP8 and 3)” value is listed as “cleavage”; the “cleaved Gasdermin-D (cl-GSDMD)” value is reported as “upregulation”. In assay [2], the “death receptor 5 (DR5)” value is reported as “upregulation” and the “mixed lineage kinase domain-like protein (MLKL) phosphorylation” value was “increased phosphorylation”. Further, the “killing of senescent cells versus proliferating cells” value in assay [3] is “preferential killing of senescent cells over proliferating cells”.
